Reference: PMC5560435 (Journal of fluorine chemistry, 2017)
Like-named read-outs stand apart in the source and are kept apart here.

Key:
microtubules [1] = conditions: cited from earlier work
CYP 3A4 = CYP 3A4 in humans; cited from earlier work
[2] = tested on: CSC-enriched (CD133++) HCT-116 human colon cancer cell line; conditions: cited from earlier work
tubulin [3] = conditions: cited from earlier work
[4] = tested on: NCI/ADR multidrug-resistant human ovarian carcinoma; conditions: cited from earlier work; for R/S resistance factor: (IC50 NCI/ADR)/(IC50 MCF7-S); for IC50: read-out: IC50 NCI/ADR (ovarian), 72 h drug exposure
[5] = tested on: MCF7-S human breast carcinoma; conditions: read-out: IC50 MCF7-S (breast); 72 h drug exposure; cited from earlier work
[6] = tested on: HT-29 human colon cancer cell line; conditions: read-out: IC50 HT-29 (colon); 72 h drug exposure; cited from earlier work
[7] = tested on: PANC-1 human pancreatic cancer cell line; conditions: read-out: IC50 PANC-1 (pancreatic); 72 h drug exposure; cited from earlier work
[8] = tested on: microtubule protein (tubulin); conditions: microtubule protein 1 mg/mL, 37 °C, Drug 10 μM; cited from earlier work
[9] = tested on: CSC-enriched (CD133++) HCT-116 human colon cancer cell line; test: Cytotoxicity against CSC-enriched HCT-116; assay type: cell-based; conditions: CSC-enriched HCT-116, from Table 2
microtubules [10] = test: Binding to microtubules, fluorescent ligand displacement method; conditions: from Table 4
tubulin [11] = test: Critical concentration of tubulin for microtubule assembly; assay type: biochemical; conditions: from Table 3

CC(=O)O[C@@]12CO[C@@H]1C[C@H](O)[C@@]1(C)C(=O)[C@H](OC(=O)C3CC3)C3=C(C)[C@@H](OC(=O)[C@H](O)[C@H](C=C(C)C)NC(=O)OC(C)(C)C)C[C@@](O)([C@@H](OC(=O)c4ccccc4)[C@H]21)C3(C)C [SB-T-1214]
Binding constant with microtubules (microtubules [1]; 26 °C): 12±2 x10^7 M^−1
Binding constant with microtubules (microtubules [1]; 37 °C): 7±1 x10^7 M^−1
Primary metabolism (CYP 3A4): hydroxylation primarily at the two allylic methyl groups of the 3′-isobutenyl group
IC50 [2]: 0.28 ± 0.1 nM
Critical concentration of tubulin required for microtubule assembly (tubulin [3]): 0.9 ± 0.2 µM

CC(=O)O[C@@]12CO[C@@H]1C[C@H](O)[C@@]1(C)C(=O)[C@H](OC(=O)N(C)C)C3=C(C)[C@@H](OC(=O)[C@H](O)[C@H](C=C(C)C)NC(=O)OC(C)(C)C)C[C@@](O)([C@@H](OC(=O)c4ccccc4)C12)C3(C)C (some centres unmarked) [SB-T-1216]
Primary metabolism (CYP 3A4): hydroxylation primarily at the two allylic methyl groups of the 3′-isobutenyl group
IC50 [2]: 0.83 ± 0.05 nM

CC(=O)O[C@H]1C(=O)[C@@]2(C)C([C@H](OC(=O)c3cccc(N=[N+]=[N-])c3)[C@]3(O)C[C@H](OC(=O)[C@H](O)[C@H](C=C(F)F)NC(=O)OC(C)(C)C)C(C)=C1C3(C)C)[C@]1(OC(C)=O)CO[C@@H]1C[C@@H]2O (some centres unmarked) [SB-T-12851-3]
R/S resistance factor [4]: 3.7
IC50 [4]: 0.34 nM
IC50 [5]: 0.092 nM

CC(=O)O[C@H]1C(=O)[C@@]2(C)C([C@H](OC(=O)c3ccccc3)[C@]3(O)C[C@H](OC(=O)[C@H](O)[C@H](C=C(F)F)NC(=O)OC(C)(C)C)C(C)=C1C3(C)C)[C@]1(OC(C)=O)CO[C@@H]1C[C@@H]2O (some centres unmarked) [SB-T-12851]
IC50 [6]: 0.41 nM
IC50 [7]: 1.19 nM
R/S resistance factor [4]: 9.6
IC50 [4]: 0.95 nM
Rate of GTP-independent tubulin polymerization [8]: much faster than paclitaxel
IC50 [5]: 0.099 nM

COc1cccc(C(=O)O[C@H]2[C@@H]3[C@]4(OC(C)=O)CO[C@@H]4C[C@H](O)[C@@]3(C)C(=O)[C@H](OC(=O)C3CC3)C3=C(C)[C@@H](OC(=O)[C@H](O)[C@H](C=C(F)F)NC(=O)OC(C)(C)C)C[C@]2(O)C3(C)C)c1 [SB-T-12852-1]
R/S resistance factor [4]: 5.2
IC50 [4]: 0.48 nM
IC50 [5]: 0.092 nM

CC(=O)O[C@@]12CO[C@@H]1C[C@H](O)[C@@]1(C)C(=O)[C@H](OC(=O)C3CC3)C3=C(C)[C@@H](OC(=O)[C@H](O)[C@H](C=C(F)F)NC(=O)OC(C)(C)C)C[C@@](O)([C@@H](OC(=O)c4cccc(F)c4)[C@H]21)C3(C)C [SB-T-12852-2]
R/S resistance factor [4]: 24
IC50 [4]: 1.72 nM
IC50 [5]: 0.071 nM

CC(=O)O[C@@]12CO[C@@H]1C[C@H](O)[C@@]1(C)C(=O)[C@H](OC(=O)C3CC3)C3=C(C)[C@@H](OC(=O)[C@H](O)[C@H](C=C(F)F)NC(=O)OC(C)(C)C)C[C@@](O)([C@@H](OC(=O)c4cccc(N=[N+]=[N-])c4)[C@H]21)C3(C)C [SB-T-12852-3]
R/S resistance factor [4]: 4.9
IC50 [4]: 0.45 nM
IC50 [5]: 0.092 nM

CC(=O)O[C@@]12CO[C@@H]1C[C@H](O)[C@@]1(C)C(=O)[C@H](OC(=O)C3CC3)C3=C(C)[C@@H](OC(=O)[C@H](O)[C@H](C=C(F)F)NC(=O)OC(C)(C)C)C[C@@](O)([C@@H](OC(=O)c4ccccc4)[C@H]21)C3(C)C [SB-T-12852]
IC50 [6]: 0.85 nM
IC50 [7]: 5.85 nM
R/S resistance factor [4]: 50
IC50 [4]: 6 nM
IC50 [5]: 0.12 nM

CCC(=O)O[C@H]1C(=O)[C@@]2(C)C([C@H](OC(=O)c3ccccc3)[C@]3(O)C[C@H](OC(=O)[C@H](O)[C@H](C=C(F)F)NC(=O)OC(C)(C)C)C(C)=C1C3(C)C)[C@]1(OC(C)=O)CO[C@@H]1C[C@@H]2O (some centres unmarked) [SB-T-12853]
IC50 [6]: 0.34 nM
IC50 [7]: 0.65 nM
R/S resistance factor [4]: 10
IC50 [4]: 1.2 nM
Rate of GTP-independent tubulin polymerization [8]: much faster than paclitaxel
IC50 [5]: 0.12 nM

CC(=O)O[C@@]12CO[C@@H]1C[C@H](O)[C@@]1(C)C(=O)[C@H](OC(=O)N(C)C)C3=C(C)[C@@H](OC(=O)[C@H](O)[C@H](C=C(F)F)NC(=O)OC(C)(C)C)C[C@@](O)([C@@H](OC(=O)c4ccccc4)C12)C3(C)C (some centres unmarked) [SB-T-12854]
IC50 [6]: 0.46 nM
Binding constant with microtubules (microtubules [1]; 26 °C): 15±3 x10^7 M^−1
Binding constant with microtubules (microtubules [1]; 37 °C): 10±1 x10^7 M^−1
times higher potency than conventional anticancer drugs [9]: 230-33,000 times
IC50 [2]: 0.14 ± 0.05 nM
IC50 [7]: 1.58 nM
times stronger binding to microtubules than paclitaxel (microtubules [10]): ca. 10 times
Potency in inducing tubulin assembly relative to SB-T-1214 (tubulin [11]): three times higher potency than SB-T-1214
Critical concentration of tubulin required for microtubule assembly (tubulin [3]): 0.3 ± 0.1 µM
R/S resistance factor [4]: 33
IC50 [4]: 4.3 nM
Rate of GTP-independent tubulin polymerization [8]: much faster than paclitaxel
IC50 [5]: 0.13 nM

COC(=O)O[C@H]1C(=O)[C@@]2(C)C([C@H](OC(=O)c3cccc(OC)c3)[C@]3(O)C[C@H](OC(=O)[C@H](O)[C@H](C=C(F)F)NC(=O)OC(C)(C)C)C(C)=C1C3(C)C)[C@]1(OC(C)=O)CO[C@@H]1C[C@@H]2O (some centres unmarked) [SB-T-12855-1]
R/S resistance factor [4]: 6.4
IC50 [4]: 0.5 nM
IC50 [5]: 0.078 nM

COC(=O)O[C@H]1C(=O)[C@@]2(C)C([C@H](OC(=O)c3cccc(N=[N+]=[N-])c3)[C@]3(O)C[C@H](OC(=O)[C@H](O)[C@H](C=C(F)F)NC(=O)OC(C)(C)C)C(C)=C1C3(C)C)[C@]1(OC(C)=O)CO[C@@H]1C[C@@H]2O (some centres unmarked) [SB-T-12855-3]
R/S resistance factor [4]: 5.3
IC50 [4]: 0.4 nM
IC50 [5]: 0.078 nM

COC(=O)O[C@H]1C(=O)[C@@]2(C)C([C@H](OC(=O)c3cccc(Cl)c3)[C@]3(O)C[C@H](OC(=O)[C@H](O)[C@H](C=C(F)F)NC(=O)OC(C)(C)C)C(C)=C1C3(C)C)[C@]1(OC(C)=O)CO[C@@H]1C[C@@H]2O (some centres unmarked) [SB-T-12855-4]
R/S resistance factor [4]: 12
IC50 [4]: 1.16 nM
IC50 [5]: 0.099 nM

N.N.[Cl][Pt][Cl] [cisplatin]
IC50 [2]: 4540 nM

COc1cccc2c1C(=O)c1c(O)c3c(c(O)c1C2=O)C[C@@](O)(C(=O)CO)C[C@@H]3O[C@H]1C[C@H](N)[C@H](O)[C@H](C)O1 [doxorubicin]
IC50 [2]: 78 ± 28.2 nM

CN(Cc1cnc2nc(N)nc(N)c2n1)c1ccc(C(=O)N[C@@H](CCC(=O)O)C(=O)O)cc1 [methotrexate]
IC50 [2]: 32.7 ± 11.2 nM

CC(=O)O[C@H]1C(=O)[C@@]2(C)[C@H]([C@H](OC(=O)c3ccccc3)[C@]3(O)C[C@H](OC(=O)[C@H](O)[C@@H](NC(=O)c4ccccc4)c4ccccc4)C(C)=C1C3(C)C)[C@]1(OC(C)=O)CO[C@@H]1C[C@@H]2O [paclitaxel, reference compound]
IC50 [6]: 3.6 nM
IC50 [2]: 33.8 ± 3.33 nM
IC50 [7]: 25.7 nM
R/S resistance factor [4]: 250
IC50 [4]: 300 nM
IC50 [5]: 1.2 nM

CC[C@@]1(O)C(=O)OCc2c1cc1n(c2=O)Cc2cc3c(CN(C)C)c(O)ccc3nc2-1 [topotecan]
IC50 [2]: 451 ± 12 nM
